The text below walks through data of ChEMBL document CHEMBL1201862, “PubChem BioAssay data set” (2004).

Broadly, the CC50 is the concentration that lowers cell viability or growth by half. The term AC50 denotes the concentration giving half of the maximal activity seen. For orientation: IC50 means the concentration that gives 50% inhibition.

One assay concerns Streptococcus. Nature of the assay: GAS UMAA2166 growth inhibition – luminescence, BacTiterGlo, counter-screen for streptokinase expression inhibitor project, dose response (AID 1915).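 Also: potency for reduction of bacterial viability or growth.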 It counts as functional, organism-based.
For another assay, the target named is T1, Streptokinase A (Streptococcus pyogenes serotype M1, UniProt P10520).
T1 sequence (P10520 whole entry): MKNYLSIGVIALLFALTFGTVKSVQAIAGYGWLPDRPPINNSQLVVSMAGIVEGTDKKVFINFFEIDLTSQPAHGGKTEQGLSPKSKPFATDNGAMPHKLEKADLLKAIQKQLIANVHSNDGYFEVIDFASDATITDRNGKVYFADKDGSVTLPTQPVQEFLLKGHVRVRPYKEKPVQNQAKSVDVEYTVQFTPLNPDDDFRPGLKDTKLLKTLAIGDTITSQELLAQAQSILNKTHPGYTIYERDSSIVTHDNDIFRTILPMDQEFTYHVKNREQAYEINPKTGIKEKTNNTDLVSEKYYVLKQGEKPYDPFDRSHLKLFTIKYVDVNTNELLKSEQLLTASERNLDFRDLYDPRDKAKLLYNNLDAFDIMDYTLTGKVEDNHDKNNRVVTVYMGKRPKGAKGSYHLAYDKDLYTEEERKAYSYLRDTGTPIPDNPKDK
Nature of the assay: viability-normalized secreted streptokinase activity reduction – plasminogen activation absorbance, OD405, dose response (AID 1914).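 Also: secreted streptokinase activity via plasminogen activation per viability signal from cell pellet.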 The assay is classed as functional, Streptococcus pyogenes M1 GAS.

For assay [1], the system named is Streptococcus sp. 'group A'. The assay is described as follows: Streptococcus pyogenes SK(-)GAS viability under kanamycin – luminescence, BacTiterGlo, confirmation, counter-screen for streptokinase expression inhibitor project, dose response (AID 1900). The assay is classed as functional, organism-based. A general note: The purpose of a counterscreen is to sort out artefacts and off-target activity.

In assay [2] the target is T2, Corticotropin-releasing factor receptor 2/Corticotropin-releasing factor-binding protein (Homo sapiens, UniProt P24387+Q13324).
T2 sequence (Q13324 whole entry): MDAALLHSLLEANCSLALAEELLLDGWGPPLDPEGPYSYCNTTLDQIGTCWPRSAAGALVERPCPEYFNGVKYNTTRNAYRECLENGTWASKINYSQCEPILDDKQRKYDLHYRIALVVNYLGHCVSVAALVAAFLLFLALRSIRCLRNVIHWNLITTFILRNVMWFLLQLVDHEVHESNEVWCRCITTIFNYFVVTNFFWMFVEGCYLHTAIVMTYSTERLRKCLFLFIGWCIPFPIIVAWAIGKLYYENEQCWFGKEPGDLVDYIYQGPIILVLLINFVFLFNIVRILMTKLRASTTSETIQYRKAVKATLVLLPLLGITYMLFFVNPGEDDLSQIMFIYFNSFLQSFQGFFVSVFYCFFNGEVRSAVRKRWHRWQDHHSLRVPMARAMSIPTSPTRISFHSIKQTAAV
T2 sequence (P24387 whole entry): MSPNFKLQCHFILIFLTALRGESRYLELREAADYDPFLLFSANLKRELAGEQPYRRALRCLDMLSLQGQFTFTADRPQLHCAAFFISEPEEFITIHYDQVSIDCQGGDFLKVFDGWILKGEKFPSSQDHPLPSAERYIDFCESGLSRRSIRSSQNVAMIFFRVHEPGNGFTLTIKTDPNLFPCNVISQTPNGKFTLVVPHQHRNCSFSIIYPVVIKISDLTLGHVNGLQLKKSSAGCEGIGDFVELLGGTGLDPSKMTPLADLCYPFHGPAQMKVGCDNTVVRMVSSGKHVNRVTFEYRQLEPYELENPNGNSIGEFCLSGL
Nature of the assay: activators of CRF receptor 2 with binding protein – uHTS hits, confirmation (AID 602473). The assay is classed as functional. To be noted: read-out: EC50_Mean.

The nature of assay [3]: viability of uninfected HEp-2 cells – cell-based, HTS, cytotoxicity control for RSV inhibitor project, dose response (AID 2410). It counts as functional. The settings on record: human respiratory syncytial virus.
Assay [4] is described as follows: Luminescence Cell-Based Dose Retest to Confirm Inhibitors of Cancer Stem Cells. [Related pubchem assays (depositor defined):AID2717, AID2721]. The settings on record: Homo sapiens. It counts as functional.
Another assay has as its target Cytochrome P450 2D6 (Homo sapiens, UniProt P10635).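 Also: CYP2D6 member of a cytochrome P450 panel assay.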
The next assay concerns the target Cytochrome P450 2C19 (Homo sapiens, UniProt P33261). The assay is described as follows: Cytochrome panel assay with activity outcomes. Panel member name: p450-cyp2c19 Compounds with AC50 equal or less than 10 uM are considered active. The assay is classed as functional. To be noted: read-out: AC50.
The next assay deals with H4. Nature of the assay: Luminescence Cell-Based Dose Response HTS to Identify Activators of 5'UTR Stem-Loop Driven Prion Protein mRNA Translation in H4 Neuroglioblastoma Cells. [Related pubchem assays: 1829 (Project Summary), 1814 (Primary HTS)]. It counts as functional. To be noted: Homo sapiens.
A short description of assay [5]: Luminescence Cell-Based Dose Response HTS to Identify Activators of Luciferase Translation or Activity in H4 […] Cells. [Related pubchem assays: 1829 (Project Summary), 1814 (Primary HTS)]. It counts as functional.
A short description of assay [6]: Luminescence Cell-Based Dose Confirmation HTS to Identify Activators of 5'UTR Stem-Loop Driven Alpha-Synuclein mRNA Translation in H4 Neuroglioblastoma Cells. [Related pubchem assays: 1829 (Project Summary), 1814 (Primary HTS)]. It counts as functional.
Assay [7] deals with T3, Ubiquitin-conjugating enzyme E2 N (Homo sapiens, UniProt P61088).
T3 sequence (P61088 whole entry): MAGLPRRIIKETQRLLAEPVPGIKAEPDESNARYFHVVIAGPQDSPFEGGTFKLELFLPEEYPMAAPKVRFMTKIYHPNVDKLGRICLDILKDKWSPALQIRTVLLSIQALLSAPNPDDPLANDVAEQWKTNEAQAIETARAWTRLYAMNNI
The assay is classed as functional.

For a further assay, the target named is Cytochrome P450 2C9 (Homo sapiens, UniProt P11712).
Chain of Cytochrome P450 2C9 (P11712 whole entry): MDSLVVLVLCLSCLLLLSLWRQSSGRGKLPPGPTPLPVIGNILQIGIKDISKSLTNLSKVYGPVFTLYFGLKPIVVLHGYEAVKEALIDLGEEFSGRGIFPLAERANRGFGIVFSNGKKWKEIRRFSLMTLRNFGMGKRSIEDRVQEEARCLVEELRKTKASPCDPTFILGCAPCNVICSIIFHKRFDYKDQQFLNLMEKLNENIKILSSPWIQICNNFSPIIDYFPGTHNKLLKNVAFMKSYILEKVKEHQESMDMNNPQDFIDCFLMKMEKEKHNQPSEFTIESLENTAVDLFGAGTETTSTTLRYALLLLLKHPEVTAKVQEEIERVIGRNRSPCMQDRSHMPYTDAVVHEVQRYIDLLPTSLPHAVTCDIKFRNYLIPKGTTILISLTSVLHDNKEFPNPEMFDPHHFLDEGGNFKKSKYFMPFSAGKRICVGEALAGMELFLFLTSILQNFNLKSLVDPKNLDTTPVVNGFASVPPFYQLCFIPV
For a further assay, the target named is Cytochrome P450 3A4 (Homo sapiens, UniProt P08684).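 Also: CYP3A4 tested as one member of a cytochrome P450 panel screen.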
Chain of Cytochrome P450 3A4 (P08684 whole entry): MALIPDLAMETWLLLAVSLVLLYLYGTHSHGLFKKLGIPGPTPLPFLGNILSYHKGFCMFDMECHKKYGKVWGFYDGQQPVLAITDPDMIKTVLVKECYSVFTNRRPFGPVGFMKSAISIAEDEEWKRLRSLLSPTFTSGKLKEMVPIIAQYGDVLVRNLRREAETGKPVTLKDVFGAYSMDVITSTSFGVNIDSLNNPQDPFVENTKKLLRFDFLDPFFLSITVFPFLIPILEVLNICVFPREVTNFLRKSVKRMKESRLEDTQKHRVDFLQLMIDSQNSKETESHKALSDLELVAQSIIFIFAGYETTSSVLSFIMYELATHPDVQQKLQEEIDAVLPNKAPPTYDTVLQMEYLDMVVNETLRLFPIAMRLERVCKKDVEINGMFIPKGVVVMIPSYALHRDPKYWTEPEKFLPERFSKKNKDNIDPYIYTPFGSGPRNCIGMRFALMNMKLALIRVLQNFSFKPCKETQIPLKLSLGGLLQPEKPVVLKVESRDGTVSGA
For the next assay, the system named is H9c2. Nature of the assay: cells. To be noted: Rattus norvegicus, H9c2, Myocardium. It counts as functional, cell-based.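 Also: confirmatory concentration-response retest of ultra-high-throughput screening hits for modulation of myocardial damage; cell death induced by hydrogen peroxide oxidative stress; compound pretreatment for 60 min then peroxide exposure for 2 h; potency is for protecting the cells against peroxide damage rather than for killing them.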
The next assay addresses Paired box protein Pax-8 (Homo sapiens, UniProt Q06710). Nature of the assay: PAX8 transcriptional activity inhibition in RMG-I – RMG-I cells, luciferase, cherry-pick, dose response (AID 687027).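 Also: luciferase reporter driven by Pax8 target thyroperoxidase promoter measured by SteadyGlo luminescence.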 It counts as functional, cell-based.
Assay [8] can be described thus: NIH3T3 cell viability loss – ATP luminescence, mouse fibroblasts, counter-screen, dose response (AID 2010).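 Also: cells exposed to compound for about 90 hours before reading.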 The assay is classed as functional, cell-based.
Assay [9] is described as follows: Trypanosoma cruzi growth suppression in host cells – NIH3T3 host cells, beta-gal luminescence, confirmation (AID 2044).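 Also: intracellular parasites grown in NIH/3T3 mouse fibroblasts as host cells; luminescent beta-galactosidase reporter signal from transgenic T. cruzi replicating inside host cells; inhibitors lower the luminescence signal.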 It counts as functional, cell-based.
The target of the next assay is T4, Cytochrome P450 1A2 (Homo sapiens, UniProt P05177).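 Also: PubChem cytochrome P450 panel assay, CYP1A2 panel member.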
T4 sequence (P05177 whole entry): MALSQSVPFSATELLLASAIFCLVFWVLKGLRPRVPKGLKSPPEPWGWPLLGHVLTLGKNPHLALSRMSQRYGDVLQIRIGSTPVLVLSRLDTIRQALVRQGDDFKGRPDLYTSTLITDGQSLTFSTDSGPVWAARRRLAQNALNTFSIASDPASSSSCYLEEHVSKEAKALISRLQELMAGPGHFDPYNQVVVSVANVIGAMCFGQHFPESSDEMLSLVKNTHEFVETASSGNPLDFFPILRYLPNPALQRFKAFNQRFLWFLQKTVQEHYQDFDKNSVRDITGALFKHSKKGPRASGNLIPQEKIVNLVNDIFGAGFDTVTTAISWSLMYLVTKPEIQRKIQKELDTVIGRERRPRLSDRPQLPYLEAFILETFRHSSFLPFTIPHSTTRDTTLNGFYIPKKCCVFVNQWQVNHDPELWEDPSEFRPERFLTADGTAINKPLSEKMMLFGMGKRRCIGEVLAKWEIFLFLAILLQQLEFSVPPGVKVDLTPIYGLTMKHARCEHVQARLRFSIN

Activity calls are given as the source filed them.

Chain of Cytochrome P450 2D6 (P10635 whole entry): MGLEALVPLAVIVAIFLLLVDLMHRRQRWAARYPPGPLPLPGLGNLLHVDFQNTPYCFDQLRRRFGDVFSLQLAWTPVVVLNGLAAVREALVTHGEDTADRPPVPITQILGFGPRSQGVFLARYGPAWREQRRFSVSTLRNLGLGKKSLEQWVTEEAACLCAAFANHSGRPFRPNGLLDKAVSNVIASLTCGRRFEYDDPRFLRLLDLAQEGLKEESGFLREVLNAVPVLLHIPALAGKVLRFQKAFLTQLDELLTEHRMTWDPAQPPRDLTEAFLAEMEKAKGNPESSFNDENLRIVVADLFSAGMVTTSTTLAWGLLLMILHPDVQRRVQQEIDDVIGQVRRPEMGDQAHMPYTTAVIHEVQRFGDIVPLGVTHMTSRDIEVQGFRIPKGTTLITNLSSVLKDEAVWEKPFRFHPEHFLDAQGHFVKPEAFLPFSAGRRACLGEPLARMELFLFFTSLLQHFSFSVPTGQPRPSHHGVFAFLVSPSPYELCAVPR
Chain of Paired box protein Pax-8 (Q06710 whole entry): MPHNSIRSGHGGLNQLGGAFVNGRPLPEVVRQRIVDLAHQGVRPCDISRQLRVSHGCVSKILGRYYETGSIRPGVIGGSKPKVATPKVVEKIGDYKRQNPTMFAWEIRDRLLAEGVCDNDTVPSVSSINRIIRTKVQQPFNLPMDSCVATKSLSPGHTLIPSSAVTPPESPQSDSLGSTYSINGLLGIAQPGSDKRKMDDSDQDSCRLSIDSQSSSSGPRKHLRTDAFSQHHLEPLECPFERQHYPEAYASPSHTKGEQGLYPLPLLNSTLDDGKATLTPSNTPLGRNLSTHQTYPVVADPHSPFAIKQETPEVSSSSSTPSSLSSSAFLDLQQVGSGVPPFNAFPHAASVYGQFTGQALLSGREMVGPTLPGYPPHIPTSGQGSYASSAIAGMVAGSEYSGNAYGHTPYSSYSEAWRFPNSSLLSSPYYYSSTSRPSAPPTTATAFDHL
Chain of Cytochrome P450 2C19 (P33261 whole entry): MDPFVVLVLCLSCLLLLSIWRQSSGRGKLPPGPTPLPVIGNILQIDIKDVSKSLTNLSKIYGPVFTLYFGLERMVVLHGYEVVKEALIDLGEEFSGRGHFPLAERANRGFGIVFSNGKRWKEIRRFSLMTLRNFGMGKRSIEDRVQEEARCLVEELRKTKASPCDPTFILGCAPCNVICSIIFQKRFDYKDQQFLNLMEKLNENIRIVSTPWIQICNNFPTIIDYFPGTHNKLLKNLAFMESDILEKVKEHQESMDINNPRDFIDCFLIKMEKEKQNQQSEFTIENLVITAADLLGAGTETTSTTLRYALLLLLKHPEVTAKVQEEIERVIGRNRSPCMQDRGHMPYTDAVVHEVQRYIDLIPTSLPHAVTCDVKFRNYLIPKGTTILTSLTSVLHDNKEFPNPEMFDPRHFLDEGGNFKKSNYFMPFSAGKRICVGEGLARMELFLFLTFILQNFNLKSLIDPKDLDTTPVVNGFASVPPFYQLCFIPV

Turning to `C=C(C)COc1ccc(-c2nc(N)ncc2Oc2ccc(OC)cc2)c(O)c1`, the EC50 in the assay with Streptococcus was > 150 µM (not active); at Streptokinase A it was > 150 µM (not active); in [1], 47.6 µM (active).

In the case of `C[C@]12CCC(O)CC1CCC1C2CC[C@]2(C)C(c3cc(C(F)(F)F)n[nH]3)CCC12` (some centres not stated), the EC50 in [2] is 11.1 µM (active); at Streptokinase A, 4.19 µM (active).

`C[C@]12CCC(O)CC1CCC1C2CC[C@]2(C)C(c3cc(C(F)(F)F)[nH]n3)CCC12` (some centres not stated): the figures for the EC50 (in the assay on Streptococcus; in [1]) were 3.87 µM (active) and 1.17 µM (active), respectively. Further, the CC50 in assay [3] is 8.08 µM (active). The AC50 in [4] was 1.67 µM (active).

Take `COc1cc(OC)c(NC(=O)C2CCN(S(=O)(=O)c3ccc4c(c3)CC(C)N4C(C)=O)CC2)cc1Cl` (configuration not stated): the CC50 in assay [3] was > 50 µM (active).

For the compound `COc1ccc(-n2c(=O)cnc3cnc(Oc4cccc(Cl)c4)nc32)cc1`, the AC50 was 39.8 µM (inconclusive) at Cytochrome P450 2D6 and 15.8 µM (inconclusive) at Cytochrome P450 2C19.

As to `COc1ccc(C(=O)C(OC(=O)c2ccccc2)c2ccccc2)cc1` (configuration not stated), the figures for the EC50 (in the assay with H4; in assay [5]; in assay [6]) were 6.4 µM (active), 30.5 µM (active) and 10.7 µM (active), respectively.

With `COc1ccc(-n2c(O)cc(=O)nc2SCC(=O)Nc2ccccc2)cc1`, the EC50 with Streptococcus is > 150 µM (not active); on Streptokinase A it was > 150 µM (not active); in [1], 67.3 µM (active).

Regarding `CCCCCCC(C)(C)c1ccc([C@@H]2C[C@H](O)CC[C@H]2CCCO)c(O)c1` [CP-55940], the AC50 in [4] was 3.58 µM (active).

Take `COc1ccc(CCn2c(-c3ccccc3)nc3c(c(=O)c4ccccc4n3C)c2=O)cc1`: the figures for the EC50 (in the assay with H4; in assay [5]; in [6]) were > 120 µM (not active), 24.2 µM (inconclusive) and > 120 µM (not active), respectively.

As to `Cc1ccc(-c2cc3nc(-c4ccccc4)cc(N)n3n2)cc1`, the EC50 in the assay with H4 was > 120 µM (not active); in [5] it was 0.812 µM (active); in assay [6] it was 0.163 µM (active).

Regarding `N#Cc1nc(-c2cccc3ccccc23)oc1NCCN1CCCCC1`, the EC50 with H4 is > 120 µM (not active); in assay [5] it was 12 µM (active); in [6], 12.4 µM (active). In addition, the IC50 in assay [7] was > 20 µM (inactive).

Regarding `CCOC(=O)O[C@]1(C(=O)COC(=O)CC)CC[C@@H]2[C@@H]3CCC4=CC(=O)C=C[C@@]4(C)[C@H]3[C@H](O)C[C@]21C`, the AC50 at Cytochrome P450 2C9, on Cytochrome P450 2D6 and at Cytochrome P450 3A4 was 12.6 µM (inconclusive) throughout.

For the compound `N#C/C(=C\c1ccc(OCc2ccccc2)cc1)C(=O)Nc1nc2c(s1)CCN(Cc1ccccc1)C2`, the CC50 in [3] is 28.8 µM (active).

`O=C(CCNS(=O)(=O)c1ccc2c(c1)CCC(=O)N2)NCc1ccc2c(c1)OCO2`: the results for the AC50 at Cytochrome P450 2C9 and at Cytochrome P450 2D6 were 39.8 µM (inconclusive) and 22.4 µM (inconclusive), respectively.

Take `CC(=O)N(C)c1ccc(NC(S)=Nc2cccc3ccccc23)cc1`: the EC50 is 30.7 µM (active) in the assay with H4, 29.5 µM (active) in [5] and 15.8 µM (active) in assay [6].

As for `CC(C)c1ccc(NC(=O)/C(C#N)=C/c2ccncc2)cc1`, in assay [3], the CC50 is 14.5 µM (active).

In the case of `CCOC(=O)c1c(NC(=O)CCS(=O)(=O)c2ccccc2)sc2c1CCN(C)C2`, the EC50 (in the assay with Streptococcus; at Streptokinase A; in [1]) was > 150 µM (not active) in each case.

`N#Cc1cn(-c2ccccc2)nc1C(=O)c1ccccc1`: the EC50 (with H4; in [5]; in [6]) was > 120 µM (not active) each time.

On to `CC1Nc2ncnc(N3CCN(c4ccccc4)CC3)c2N(Cc2ccc(Cl)cc2)C1=O` (configuration not stated), for which the IC50 in the assay on H9c2 is > 79 µM (inactive). The CC50 in [3] is 26.4 µM (active).

On to `O=C1[C@@H]2Cc3c([nH]c4ccccc34)C(c3cccc(Br)c3)N2C(=O)CN1C1CCN(Cc2ccccc2)CC1` (some centres not stated), for which the results for the AC50 (at Paired box protein Pax-8; in assay [4]) were 12.1 µM (active) and 6.9 µM (active), respectively. Moreover, the EC50 is 9.95 µM (active) in assay [8] and 1.32 µM (active) in [9].

As for `COc1cc(OC)cc(C(=O)Nc2cccc(-c3ccc(N4CCOCC4)nn3)c2)c1`, the EC50 (in the assay with Streptococcus; at Streptokinase A; in assay [1]) was > 150 µM (not active) throughout.

In the case of `Cc1nc(-c2ccc(Cl)cc2)sc1C1(C)CC(c2ccccc2)=NO1` (configuration not stated), the results for the EC50 (in the assay with H4; in assay [5]; in assay [6]) were 31.3 µM (active), 9.8 µM (active) and 7.51 µM (active), respectively.

As to `CCc1cc2cccc(C)c2nc1SCC(=O)c1ccc(NC(C)=O)cc1`, the AC50 in assay [4] was 2.94 µM (active).

With `Cc1ccc(Nc2ncnc3sc(C)c(C)c23)cc1`, the EC50 in the assay on H4 was 26.3 µM (active); in assay [5] it was 19.5 µM (active); in assay [6], 18.1 µM (active).

Turning to `COc1ccc2nc(O)c(CN(CCc3ccccc3)C(C)=O)cc2c1`, the AC50 on Cytochrome P450 2C9, at Cytochrome P450 2D6 and at Cytochrome P450 1A2 was 14.1 µM (inconclusive) in each case.

For the compound `Brc1ccccc1OCCCCn1cnc2ccccc21`, the EC50 with H4 is 13 µM (inconclusive); in assay [5] it was 16.9 µM (active); in assay [6], > 120 µM (not active).
